From ChEMBL document CHEMBL1121410, “Structure--taste relationship of perillartine and nitro- and cyanoaniline derivatives” (J Med Chem, 1980)

Columns and labels:
Homo sapiens [1] = species on record: Homo sapiens; assay: Activity expressed by taste potency (taste intensity relative to sucrose on a mole/mole basis); type: functional
Homo sapiens [2] = species on record: Homo sapiens; assay: Taste quality; type: functional
[3] = Evaluated for taste quality, NS means not sweet
[4] = Evaluated for taste quality,
[5] = The activity was expressed by the logarithm of the taste potency as measure of taste intensity relative to that of sucrose on a mole/mole basis; NI means not isolated
[6] = The activity was expressed by the logarithm of the taste potency as measure of taste intensity relative to that of sucrose on a mole/mole basis;T = tasteless
[7] = The activity was expressed by the logarithm of the taste potency as measure of taste intensity relative to that of sucrose on a mole/mole basis; I means insoluble

C=C(C)/C=N/O
Log A (Homo sapiens [1]): 0.9

COC1CC=C(/C=N/O)CC1 (centres undefined)
Log A (Homo sapiens [1]): 0.9 | Log sweet/bitter (Homo sapiens [2]): 0.21

COC(C)C1=CCC=C(/C=N/O)C1 (centres undefined)
Log A (Homo sapiens [1]): 1.96 | Log sweet/bitter [3]: Not sweet

CC1CC=C(/C=N/O)C(C)O1 (centres undefined)
Log A (Homo sapiens [1]): 1 | Log sweet/bitter [3]: Not sweet

CC1=CCC(/C=N/O)=CC1
Log A (Homo sapiens [1]): 2.7 | Log sweet/bitter (Homo sapiens [2]): 1.42

CC(C)Oc1ccc([N+](=O)[O-])cc1N
Log A (Homo sapiens [1]): 2.54

CC(=O)C1CC=C(/C=N/O)CC1 (centres undefined)
Log A (Homo sapiens [1]): 1.08 | Log sweet/bitter (Homo sapiens [2]): 0.22

CCOC1CC=C(/C=N/O)CC1 (centres undefined)
Log A (Homo sapiens [1]): 1.2 | Log sweet/bitter (Homo sapiens [2]): 0.21

Cc1ccc([N+](=O)[O-])cc1N
Log A (Homo sapiens [1]): 2.17

O/N=C/C1=CCOCC1
Log A (Homo sapiens [1]): 0.18

O/N=C/C1=CCSCC1
Log A (Homo sapiens [1]): 1.3

COCC(OC)C1CC=C(/C=N/O)CC1 (centres undefined)
Log A (Homo sapiens [1]): 0.9 | Log sweet/bitter [3]: Not sweet

CC(O)(CO)C1CC=C(/C=N/O)CC1 (centres undefined)
Log A (Homo sapiens [1]): 1.48 | Log sweet/bitter (Homo sapiens [2]): -1.15

CC(C)(OCC(=O)O)C1CC=C(/C=N/O)CC1 (centres undefined) [listing 1 of 2 here]
Log sweet/bitter [3]: Not sweet

CO/N=C(/C)C1CC=C(/C=N/O)CC1 (centres undefined)
Log A (Homo sapiens [1]): 1.9

CCCOc1ccc([N+](=O)[O-])cc1N
Log A (Homo sapiens [1]): 3.46

COCCCC/C=C(C)/C=N/O
Log A (Homo sapiens [1]): 1.23

CC(C)(O)C1CC=C(/C=N/O)CC1 (centres undefined)
Log A (Homo sapiens [1]): 0.9 | Log sweet/bitter [4]: -0.66

CC1(C2CC=C(/C=N/O)CC2)CO1 (centres undefined)
Log A (Homo sapiens [1]): 1.7

COCC1=CC=C(/C=N/O)CC1
Log A [5]: Not isolated

N#Cc1ccc(Br)c(N)c1
Log A (Homo sapiens [1]): 2.46

CCOc1ccc(C#N)cc1N
Log A (Homo sapiens [1]): 2.63

COCC1CC=C(/C=N/O)C1 (centres undefined)
Log A (Homo sapiens [1]): 1.38 | Log sweet/bitter (Homo sapiens [2]): 0.64

COCC/C=C(C)/C=N/O
Log A (Homo sapiens [1]): 0.6

N#Cc1cccc(N)c1
Log A (Homo sapiens [1]): 0.94

CC(C)(OCC(=O)O)C1CC=C(/C=N/O)CC1 (centres undefined) [listing 2 of 2 here]
Log A (Homo sapiens [1]): 1.98 | Log sweet/bitter (Homo sapiens [2]): 0.15

COC(C)C1CCC=C(/C=N/O)C1 (centres undefined)
Log A (Homo sapiens [1]): 1.45 | Log sweet/bitter (Homo sapiens [2]): -1.4

CC(C)(OCC(=O)[O-])C1CC=C(/C=N/O)CC1.[Na+] (centres undefined)
Log A (Homo sapiens [1]): 1

O/N=C/C1=COCCC1
Log A (Homo sapiens [1]): 0.48

COC(C)C1CC=C(/C=N/O)CC1 (centres undefined)
Log A (Homo sapiens [1]): 1.9 | Log sweet/bitter (Homo sapiens [2]): 0.4

COc1ccc(C#N)cc1N
Log A (Homo sapiens [1]): 1.89

Nc1cc([N+](=O)[O-])ccc1Br
Log A (Homo sapiens [1]): 2.71

C=COc1ccc([N+](=O)[O-])cc1N
Log A (Homo sapiens [1]): 3.06

C=C(C)C1CC=C(/C=N/O)CC1 (centres undefined)
Log A (Homo sapiens [1]): 2.57 | Log sweet/bitter (Homo sapiens [2]): 0.38

O/N=C/C1=CCCOC1
Log A (Homo sapiens [1]): 0.3

N#Cc1ccc(Cl)c(N)c1
Log A (Homo sapiens [1]): 2.13

CC1=CC=C(/C=N/O)CC1
Log A (Homo sapiens [1]): 2.18 | Log sweet/bitter (Homo sapiens [2]): 0.23

O/N=C/C1=CCC=CC1
Log A (Homo sapiens [1]): 2.3

C=CC1C=C(/C=N/O)CCC1 (centres undefined)
Log A (Homo sapiens [1]): 2.24 | Log sweet/bitter (Homo sapiens [2]): -0.39

O/N=C/C1=CCCCC1
Log A (Homo sapiens [1]): 1.74

O/N=C/C1=CC=CCC1
Log A (Homo sapiens [1]): 1.95

CCCCOc1ccc([N+](=O)[O-])cc1N
Log A (Homo sapiens [1]): 2.79

COCC(C)(OC)C1CC=C(/C=N/O)CC1 (centres undefined)
Log A (Homo sapiens [1]): 1.7

COC(C)C1=CCC(/C=N/O)=CC1 (centres undefined)
Log A (Homo sapiens [1]): 2.48 | Log sweet/bitter (Homo sapiens [2]): 1.96

CCOc1ccc([N+](=O)[O-])cc1N
Log A (Homo sapiens [1]): 2.87

COC(C)(CO)C1CC=C(/C=N/O)CC1 (centres undefined)
Log A (Homo sapiens [1]): 1.04 | Log sweet/bitter (Homo sapiens [2]): -1.4

COCC1CCC=C1/C=N/O (centres undefined)
Log A (Homo sapiens [1]): 1.52 | Log sweet/bitter (Homo sapiens [2]): -0.12

COCC1=CCC=C(/C=N/O)C1
Log A (Homo sapiens [1]): 2.15 | Log sweet/bitter [3]: Not sweet

O/N=C/C1=CCCC1
Log A (Homo sapiens [1]): 1.74

COCC(C)(O)C1CC=C(/C=N/O)CC1 (centres undefined)
Log A (Homo sapiens [1]): 0.6 | Log sweet/bitter (Homo sapiens [2]): -1.05

COCC1=CCC(/C=N/O)=CC1
Log A (Homo sapiens [1]): 2.35 | Log sweet/bitter (Homo sapiens [2]): 1.65

Nc1cc([N+](=O)[O-])ccc1I
Log A (Homo sapiens [1]): 2.98

C=CC1CC=C(/C=N/O)CC1 (centres undefined)
Log A (Homo sapiens [1]): 3.06 | Log sweet/bitter (Homo sapiens [2]): 0.7

COCCC1CC=C(/C=N/O)CC1 (centres undefined)
Log A [6]: Tasteless

Nc1cccc([N+](=O)[O-])c1 [3-NITROANILINE]
Log A (Homo sapiens [1]): 1.21

COCCOCC1CC=C(/C=N/O)CC1 (centres undefined)
Log A [7]: Insoluble

Nc1cc([N+](=O)[O-])ccc1F
Log A (Homo sapiens [1]): 1.26

COCC1CC=C(/C=N/O)CC1 (centres undefined)
Log A (Homo sapiens [1]): 1.72 | Log sweet/bitter (Homo sapiens [2]): 0.38

CC(C)C1=CCC(/C=N/O)=CC1
Log A (Homo sapiens [1]): 2.51 | Log sweet/bitter (Homo sapiens [2]): -0.07

COC(C)C1=CC=C(/C=N/O)CC1 (centres undefined)
Log A (Homo sapiens [1]): 2.13 | Log sweet/bitter (Homo sapiens [2]): 0.97

C/C(=N\O)C1=CCCCC1
Log A (Homo sapiens [1]): 2.61 | Log sweet/bitter [3]: Not sweet

C/C=C(C)/C=N/O
Log A (Homo sapiens [1]): 1.6

CCCOc1ccc(C#N)cc1N
Log A (Homo sapiens [1]): 3.11

COc1ccc([N+](=O)[O-])cc1N
Log A (Homo sapiens [1]): 2.21

CC1CC=C(/C=N/O)CC1 (centres undefined)
Log A (Homo sapiens [1]): 2.4 | Log sweet/bitter (Homo sapiens [2]): -0.1

O/N=C/C1=CC2C=CC1CC2 (centres undefined)
Log A (Homo sapiens [1]): 2.51 | Log sweet/bitter [3]: Not sweet

Nc1cc([N+](=O)[O-])ccc1O [2-AMINO-4-NITROPHENOL]
Log A (Homo sapiens [1]): 1.96

CCCc1ccc([N+](=O)[O-])cc1N
Log A (Homo sapiens [1]): 3.02

Nc1cc([N+](=O)[O-])ccc1Cl
Log A (Homo sapiens [1]): 2.31

C/C=C(C)/C(C)=N/O
Log A (Homo sapiens [1]): 2.15
